Columns and labels:
Assay in all cases: relative viability (nuclei count vs DMSO), 5 days (fraction); higher = more cells survive
Dinaciclib + Bortezomib = compound: CCc1cnn2c(NCc3ccc[n+]([O-])c3)cc(N3CCCC[C@H]3CCO)nc12 [Dinaciclib] + CC(C)C[C@H](NC(=O)[C@H](Cc1ccccc1)NC(=O)c1cnccn1)B(O)O [Bortezomib] (partner 0.002 µM)
Method in brief: (§1)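 Relative viability divides the nuclei count in treated wells by that in vehicle wells. Lung cancer cell lines were seeded in 1536-well plates, dosed by pin tool the next day, and fixed and stained after 5 days in one step with final 0.05% Triton X-100, 1% formaldehyde and 1 ug/ml Hoechst. Dosing was a single drug or a fixed anchor-drug dose plus five library-drug doses (not always all listed) in √10 steps, and values are medians of duplicate plates imaged at 4×.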

Dinaciclib + Foretinib = compound: CCc1cnn2c(NCc3ccc[n+]([O-])c3)cc(N3CCCC[C@H]3CCO)nc12 [Dinaciclib] + COc1cc2c(Oc3ccc(NC(=O)C4(C(=O)Nc5ccc(F)cc5)CC4)cc3F)ccnc2cc1OCCCN1CCOCC1 [Foretinib] (partner 0.25 µM)
Method in brief: as §1

Dinaciclib + Tozasertib = compound: CCc1cnn2c(NCc3ccc[n+]([O-])c3)cc(N3CCCC[C@H]3CCO)nc12 [Dinaciclib] + Cc1cc(Nc2cc(N3CCN(C)CC3)nc(Sc3ccc(NC(=O)C4CC4)cc3)n2)n[nH]1 [Tozasertib] (partner 0.1 µM)
Method in brief: as §1

Dinaciclib + Vorinostat = compound: CCc1cnn2c(NCc3ccc[n+]([O-])c3)cc(N3CCCC[C@H]3CCO)nc12 [Dinaciclib] + O=C(CCCCCCC(=O)Nc1ccccc1)NO [Vorinostat] (partner 1 µM)
Method in brief: as §1

Dinaciclib + Luminespib = compound: CCc1cnn2c(NCc3ccc[n+]([O-])c3)cc(N3CCCC[C@H]3CCO)nc12 [Dinaciclib] + CCNC(=O)c1noc(-c2cc(C(C)C)c(O)cc2O)c1-c1ccc(CN2CCOCC2)cc1 [Luminespib] (partner 0.01 µM)
Method in brief: as §1

Cell Line	relative viability (Dinaciclib + Bortezomib; first compound 0.009487 µM)	relative viability (Dinaciclib + Bortezomib; first compound 0.03 µM)	relative viability (Dinaciclib + Bortezomib; first compound 0.09487 µM)	relative viability (Dinaciclib + Bortezomib; first compound 0.3 µM)	relative viability (Dinaciclib + Foretinib; first compound 0.009487 µM)	relative viability (Dinaciclib + Foretinib; first compound 0.03 µM)	relative viability (Dinaciclib + Foretinib; first compound 0.09487 µM)	relative viability (Dinaciclib + Foretinib; first compound 0.3 µM)	relative viability (Dinaciclib + Tozasertib; first compound 0.009487 µM)	relative viability (Dinaciclib + Tozasertib; first compound 0.03 µM)	relative viability (Dinaciclib + Tozasertib; first compound 0.09487 µM)	relative viability (Dinaciclib + Tozasertib; first compound 0.3 µM)	relative viability (Dinaciclib + Vorinostat; first compound 0.009487 µM)	relative viability (Dinaciclib + Vorinostat; first compound 0.03 µM)	relative viability (Dinaciclib + Vorinostat; first compound 0.09487 µM)	relative viability (Dinaciclib + Vorinostat; first compound 0.3 µM)	relative viability (Dinaciclib + Luminespib; first compound 0.009487 µM)	relative viability (Dinaciclib + Luminespib; first compound 0.03 µM)	relative viability (Dinaciclib + Luminespib; first compound 0.09487 µM)	relative viability (Dinaciclib + Luminespib; first compound 0.3 µM)
HCC-366	0.779	0.0262	0.0219	0.0175	0.851	0.0324	0.042	0.0348	0.136	0.0294	0.0259	0.0198	0.193	0.0415	0.0286	0.0247				
HCC-827	0.986	0.746	0.213	0.178	1.09	0.682	0.147	0.13	0.417	0.251	0.101	0.117	1	0.747	0.123	0.159	0.805	0.108	0.103	0.107
HOP-62	0.643	0.0795	0.0423	0.0609	1.11	0.376	0.0923	0.0743	0.293	0.13	0.0833	0.075	0.543	0.0919	0.0742	0.0609	0.778	0.193	0.0765	0.0749
IA-LM	0.72	0.0186	0.019	0.014	1.01	0.0352	0.0148	0.0125					0.973	0.547	0.0376	0.0379				
LC-2-ad	1.05	0.0825	0.0622	0.0691	0.824	0.248	0.205	0.195	0.363	0.242	0.19	0.219	0.685	0.17	0.108	0.108	0.877	0.23	0.23	0.178
LCLC-97TM1	0.0824	0.0484	0.0476	0.0667	0.705	0.14	0.132	0.107	0.172	0.115	0.128	0.112	0.56	0.0645	0.0617	0.0592	0.459	0.111	0.116	0.109
LCLC-103H	1.04	0.998	0.451	0.108	0.834	0.623	0.0915	0.094	0.487	0.315	0.0924	0.0865	0.777	0.505	0.178	0.197	1.08	0.473	0.12	0.102
LK-2					1.13	0.267	0.164	0.142	0.2	0.154	0.151	0.168	0.251	0.152	0.148	0.161	0.165	0.139	0.166	0.162
